Data on 2 molecules can be found in patent publication US20240425452A1.

Each structure is given as a SMILES string. Several values for one entry are separate records, joined by “and”; a condition that tells them apart may be missing. Equal entries are not always repeated. Where two headings read alike, the source gives them in different places.

A short description of data set [1]: Exposure of trans isomer to artificial daylight, 1H NMR analysis. Format: physicochemical. The conditions noted are these: 10% d6-DMSO in buffer pH 7.4, artificial daylight 5 hr.
Source text: A sample of substantially pure trans isomer of 3-(2-bromo-3,4-dihydroxy-phenyl)-N-(3,4,5-trihydroxy-benzyl)-thioacrylamide in 10% d6-DMSO in a buffer (pH 7.4) was irradiated with an artificial daylight for 5 hr. Thereafter, the solution was characterized by ^1H-NMR analyses.
Thus, differentiating between the two isomers can be performed using ^1H-NMR analysis.
The nature of data set [2]: Exposure of trans isomer in HPCD solution to room lighting, UV analysis. Format: physicochemical. The conditions noted are these: 0.5 mg/mL in 0.025% phosphoric acid (diluted from HPCD solution), clear glass vials, room lighting several days.
The format of data set [3] is physicochemical. The note with it: 1 mM, 125 lux light. The source says: An additional assessment of the stability of the trans isomer upon exposure to artificial daylight was made.
A short description of data set [4]: Interactions with water molecules, thermogravimetric analysis (TGA). Format: physicochemical. The note with it: TGA 30-200° C. at 10° C./min, 1 mM in water with 1% DMSO. How it is done:
TGA was performed on a Perkin Elmer TGA 800 using Pyris software. A temperature scan from 30° C. to 200° C. at a rate of 10° C./min was performed. The isomers were analyzed at a concentration of 1 mM in water (containing 1% DMSO).

Data set [5] in a line: physchem.
Procedure: (§1) The octanol:water partition coefficients of the trans and cis isomers of 3-(2-bromo-3,4-dihydroxy-phenyl)-N-(3,4,5-trihydroxy-benzyl)-thioacrylamide were determined.
(§2) A solution of 10 mM of the trans isomer in DMSO was prepared and diluted 10-fold in water. A solution of the cis isomer was obtained by exposing the trans isomer solution (5 mL) to 125 lux light at 4° C. for 9 hours resulting in a solution containing more than 90% of the cis isomer. Partitioning in octanol:water was performed as follows: 20 μL of each solution were added to 80 μL of water (saturated by octanol, containing 1 mM of ascorbic acid) and 100 μl of octanol (saturated by water). The obtained solutions were stirred for 1 min and left for incubation at RT for 24 hours. Then, each phase was analyzed by HPLC. The concentration (C) of each isomer was determined using a calibration curve, based on the injection volume of each phase and a response factor of 1 (previously measured).
(§3) For all said analyses a volume of 13 μL was injected to the HPLC.
Data set [6] is described as follows: Stability in biorelevant fluids (FaSSGF, FaSSIF), HPLC. The conditions noted are these: for Percent of isomer in FaSSGF / Percent of isomer in FaSSIF: 250 μM.
Procedure: The stability of the trans and cis isomers of 3-(2-bromo-3,4-dihydroxy-phenyl)-N-(3,4,5-trihydroxy-benzyl)-thioacrylamide in biorelevant fluids was assessed, including Fasted State Simulated Intestinal Fluid (FaSSIF) and Fasted State Simulated Gastric Fluid (FaSSGF).
A solution containing the cis isomer of 3-(2-bromo-3,4-dihydroxy-phenyl)-N-(3,4,5-trihydroxy-benzyl)-thioacrylamide was prepared by exposing a 5 mL solution of the 100% trans isomer at a concentration of 1 mM to 125 lux light for 9 hours at 4° C.
FaSSIF and FaSSGF solutions were prepared according to the manufacturer's instructions.
The cis and trans isomers of 3-(2-bromo-3,4-dihydroxy-phenyl)-N-(3,4,5-trihydroxy-benzyl)-thioacrylamide were diluted in either FaSSIF or FaSSGF solutions to a final concentration of 250 μM. Samples were taken at time 0 and after 4 hours. Samples were frozen in liquid nitrogen, and stored frozen until analysis.
The nature of data set [7]: Octanol:water partition coefficient (Log P), HPLC.
Procedure: as §1, §2, §3
Where [8] appears, read: simulated intestinal fluid, 0 h.
[9] abbreviates: simulated intestinal fluid, 0.5 h.

`Oc1cc(CNC(=S)/C=C/c2ccc(O)c(O)c2Br)cc(O)c1O` [trans isomer]: in data set [1], the “conversion of the trans isomer to the cis isomer (1H-NMR)” value is given as “significant conversion”. In addition, the “conversion of the trans isomer to the cis isomer” value in data set [2] is “conversion of the trans isomer to the cis isomer”. Further, the “% cis” value was 0% in data set [3] (0 hours); 64% and 63.7% in data set [3] (2 hours); 87.7% in data set [3] (4 hours); 92.1% in data set [3] (6 hours). The “% trans” value in data set [3] (0 hours) was 100%; in data set [3] (1 hour), 50.5%; in data set [3] (2 hours), 36.3%; in data set [3] (4 hours), 12.3%; in data set [3] (5 hours), 8.5%; in data set [3] (6 hours), 7.9%. Moreover, the “Maximum evaporation rate (bound water)” value in data set [4] is 12%/min. The “Maximum evaporation rate (free water)” value is 23 %/min in data set [4] and 23%/min in data set [4] (listed as Trans isomer). In data set [4], the “Temperature of mid evaporation (free water)” value was found to be 87 °C. In data set [5], this molecule showed a lipophilicity (logP) at 24 h of 0.86. Further, the “Percent of isomer in FaSSGF” value in data set [6] (simulated gastric fluid, 0 h) is recorded as 100%; in data set [6] (simulated gastric fluid, 0.5 h), 100%; in data set [6] (simulated gastric fluid, 4 h), 100%. Further, the “stability in FaSSGF” value in data set [6] (simulated gastric fluid, up to 4 h) was “completely stable”. Further, in data set [6] (simulated intestinal fluid, 0 to 4 h), the “reduction of concentration in FaSSIF” value is around 7%. Besides, the “Percent of isomer in FaSSIF” value was 98.15% in data set [6] (setting [8]); 96.25% in data set [6] (setting [9]); 90.98% in data set [6] (simulated intestinal fluid, 4 h).
Consider `Oc1cc(CNC(=S)C=Cc2ccc(O)c(O)c2Br)cc(O)c1O` (single isomer, unassigned; isomer 3) [cis isomer], for which the “Maximum evaporation rate (bound water)” value in data set [4] turned out to be 12%/min. Moreover, the “Maximum evaporation rate (free water)” value was 37 %/min in data set [4] and 37%/min in data set [4] (listed as Cis isomer). The “Temperature of mid evaporation (free water)” value in data set [4] was 58 °C. This molecule yielded a logP at 24 h in data set [7] of -0.18. Moreover, in data set [6] (simulated gastric fluid, 0 to 4 h), the “reduction of concentration in FaSSGF” value was around 16%. Further, the “Percent of isomer in FaSSGF” value is on record as 89.05% in data set [6] (simulated gastric fluid, 0 h); 89.07% in data set [6] (simulated gastric fluid, 0.5 h); 73.47% in data set [6] (simulated gastric fluid, 4 h). In addition, the “Percent of isomer in FaSSIF” value is 83.49% in data set [6] (setting [8]); 72.21% in data set [6] (setting [9]); 54.87% in data set [6] (simulated intestinal fluid, 4 h, listed as Cis); around 55% in data set [6] (simulated intestinal fluid, 4 h, listed as cis).
